Results on five compounds are retold here after ChEMBL document CHEMBL1150869, “Bombardolides: new antifungal and antibacterial gamma-lactones from the coprophilous fungus Bombardioidea anartia” (2001).

Holding throughout (type): functional
Conditions in all cases: read-out: IZ

One assay has as its system Bacillus subtilis. The experiment in a line: Antimicrobial activity against Bacillus subtilis ATCC 6051 at 200 ug/disk by standard disk diffusion method.
The subject of another assay is Staphylococcus aureus. The experiment in a line: Antimicrobial activity against Staphylococcus aureus ATCC 29213 at 200 ug/disk by standard disk diffusion method. In general terms: In agar diffusion tests the substance spreads into inoculated agar from a disc or well.
The test system of the next assay is Candida albicans. The experiment in a line: Antimicrobial activity against Candida albicans ATCC 10231 at 200 ug/disk by standard disk diffusion method.

Consider `CC/C=C1C=C(/C=C/C(=O)O)C(=O)O/1`, for which the figures for the zone of inhibition at 200 µg/disc in the assay with Bacillus subtilis and in the assay on Staphylococcus aureus were 26 mm and 18 mm, respectively.
Regarding `CCCCC(O)c1cccc(O)c1` (centres undefined), the results for the zone of inhibition at 200 µg/disc with Bacillus subtilis and with Staphylococcus aureus were 12 mm and 19 mm, respectively.
Regarding `CC/C=C1/C=C(CCCO)C(=O)O1` [(E/Z)-BOMBARDOLIDE B], the zone of inhibition at 200 µg/disc in the assay with Bacillus subtilis was determined as 11 mm.
Consider `CCCC1C=C(/C=C/CO)C(=O)O1` (centres undefined) [BOMBARDOLIDE D], for which the zone of inhibition at 200 µg/disc in the assay on Candida albicans was 20 mm.
For `CC/C=C1C=C(/C=C/CO)C(=O)O/1`, the results for the zone of inhibition at 200 µg/disc with Bacillus subtilis, in the assay with Staphylococcus aureus and in the assay with Candida albicans were 19 mm, 14 mm and 35 mm, respectively.
